According to the supplement of paper PMC10307832:

Key:
Test in all cases: relative viability (nuclei count vs DMSO), 5 days (fraction); higher = more cells survive
[1] = compound: C[C@]12O[C@H](C[C@]1(O)CO)n1c3ccccc3c3c4c(c5c6ccccc6n2c5c31)CNC4=O [Lestaurtinib] + Nc1ncn([C@H]2C[C@H](O)[C@@H](CO)O2)c(=O)n1 [Decitabine] (partner 2 µM)
In short: (§1)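 Medians of duplicate plates are given as relative viability. That measure is the nuclei count in treated wells divided by the count in vehicle wells. Counts were taken on 4× images of lung cancer cell lines in 1536-well plates, 5 days after pin-tool dosing the day after seeding with one drug alone or a fixed anchor-drug dose plus five library-drug doses (not always all listed) in √10 steps.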

[2] = compound: C1/C(=C\C2=CC=CS2)/C(=O)/C(=C/C3=CC=CS3)/C1 + Cc1nc(NC(=O)N2CCC[C@H]2C(N)=O)sc1-c1ccnc(C(C)(C)C(F)(F)F)c1 [Alpelisib] (partner 2 µM)
In short: as §1

[3] = compound: C1/C(=C\C2=CC=CS2)/C(=O)/C(=C/C3=CC=CS3)/C1 + CC(=O)Nc1cccc(-n2c(=O)n(C3CC3)c(=O)c3c(Nc4ccc(I)cc4F)n(C)c(=O)c(C)c32)c1 [Trametinib] (partner 0.02 µM)
In short: as §1

[4] = compound: C1/C(=C\C2=CC=CS2)/C(=O)/C(=C/C3=CC=CS3)/C1 + Nc1nc2[nH]cc(CCc3ccc(C(=O)N[C@@H](CCC(=O)O)C(=O)O)cc3)c2c(=O)[nH]1 [Pemetrexed] (partner 0.2 µM)
In short: as §1

UMC-11 gave a relative viability ([1]; first compound 0.005 µM) of 0.63, a relative viability ([1]; first compound 0.01581 µM) of 1.49 and a relative viability ([1]; first compound 0.05 µM) of 0.544. The relative viability ([1]; first compound 0.1581 µM) was 0.241, the relative viability ([1]; first compound 0.5 µM) was 0.218 and the relative viability ([2]; first compound 0.2 µM) was 1.04. For the same cell line, the relative viability ([2]; first compound 0.6325 µM) was 1.1, the relative viability ([2]; first compound 2 µM) was 0.847 and the relative viability ([2]; first compound 20 µM) was 0.952. It also gave a relative viability ([3]; first compound 0.2 µM) of 0.69, a relative viability ([3]; first compound 0.6325 µM) of 0.737 and a relative viability ([3]; first compound 2 µM) of 0.675. For the same cell line, the relative viability ([3]; first compound 6.325 µM) was 0.671, the relative viability ([3]; first compound 20 µM) was 0.715 and the relative viability ([4]; first compound 0.2 µM) was 0.816. For the same cell line, the relative viability ([4]; first compound 0.6325 µM) was 0.817, the relative viability ([4]; first compound 2 µM) was 0.789 and the relative viability ([4]; first compound 6.325 µM) was 0.563. The relative viability ([4]; first compound 20 µM) was 0.824.
